From patent publication US20220187282A1, “CARDIOMYOCYTE PROLIFERATION” (The Council of the Queensland Institute of Medical Research, priority 2019, published 2022)

Experiments:
[1] = tested on: mature hCOs; assay: mature hCO, cardiomyocyte proliferation (Ki-67 intensity, Ki-67+ α-actinin cardiomyocytes); assay type: cell-based, human; conditions: mature hCO; for Ki-67+ cardiomyocytes: 2 days, compound 3 at 3 μM, 63 at 0.3 μM, 65 at 1 μM; for proliferative response (Ki-67 intensity) with 10 μM simvastatin: 1 μM compound 65, 3 μM compound 3 or 10 μM compound 6.28; for proliferation above the optimal concentrations: above 3 μM (compound 3), above 1 μM (compound 65)
Method: hCOs were cultured in CTRL medium for formation for 5 days and then either kept in CTRL medium culture or changed to maturation medium (Mills et al., 2017a) comprising DMEM without glucose, glutamine and phenol red (ThermoFisher Scientific) supplemented with 4% […](without insulin) (ThermoFisher Scientific), 1% GlutaMAX (ThermoFisher Scientific), 200 μM L-ascorbic acid 2-phosphate sesquimagnesium salt hydrate and 1% Penicillin/Streptomycin (ThermoFisher Scientific), 1 mmol/L glucose and 100 μmon palmitic acid (conjugated to bovine serum albumin within B27 by incubating for 2h at 37° C., Sigma) with changes every 2-3 days.
Whole-Mount Immunostaining hCOs were fixed for 60 min with 1% paraformaldehyde (Sigma) at room temperature and washed 3× with PBS, after which they were incubated with primary antibodies (see Star Methods Table) in Blocking Buffer, 5% FBS and 0.2% Triton-X-100 (Sigma) in PBS overnight at 4° C. Cells were then washed in Blocking Buffer 2× for 2 h and subsequently incubated with secondary antibodies (see Star Methods Table) and Hoechst33342 (1:1000) overnight at 4° C. They were washed in Blocking Buffer 2× for 2 h and imaged in situ or mounted on microscope slides using Fluoromount-G (Southern Biotech).
For screening hCOs were imaged using a Leica DMi8 high content imaging microscope for in situ imaging. Custom batch processing files were written in Matlab R2013a (Mathworks) to remove the background, calculate the image intensity, and export the batch data to an Excel (Microsoft) spreadsheet.
For more detailed images an Olympus IX81 confocal microscope was used for mounted hCO imaging. For cell cycle analysis experiments 3 random fields of view were imaged and manually quantified for proliferation. These were added together to calculate the percentage of hPSC-CM proliferation in each hCO.
Hits were next validated in mature hCOs using a targeted concentration range based on their active concentrations in the initial immature hCO screen (FIG. 3A). Proliferation markers were quantified using high magnification confocal imaging as we found flow cytometry to be inaccurate in hCO (data not shown). Compounds 3, 63 and 65 had no impact on contractile force (FIG. 3B) at concentrations of 3 μM, 0.3 μM and 1 μM, respectively. […] The effects of both compound 3 and compound 65 were reversible, with proliferation ceasing within 5 days of compound withdrawal (FIG. 8B). Therefore, compound 3 (FIG. 3G) and compound 65 (Goldberg et al., 2009) (FIG. 3H) are both capable of inducing bona fide cardiomyocyte proliferation in mature hCOs without adversely affecting contractile properties.

[2] = tested on: mature hCO; assay: RNA-sequencing of mature hCO treated with compounds; assay type: cell-based, human; conditions: 2 days; for genes regulated (RNA-seq): 3 μM compound 3, 0.3 μM compound 63, 1 μM compound 65
Method: For each experiment 15-20 hCOs were pooled, snap frozen and RNA extracted using Trizol (ThermoFisher Scientific), treated with DNAse (Qiagen) and purified using RNeasy Minielute Cleanup Kit (Qiagen). The quality of the RNA was assessed by Fragment Analyzer (Advances Analytical Technologies) and samples with RNA quality number >8.9 were used for library preparation. RNA samples were processed with Illumina TruSeq Stranded mRNA Library prep kit selecting for poly(A) tailed RNA following the manufacturer's recommendations. Libraries were quantified with Qubit HS (ThermoFisher) and Fragment Analyzer (Advances Analytical Technologies) adjusted to the appropriate concentration for sequencing. Indexed libraries were pooled and sequenced at a final concentration of 1.8 pmol/L on an Illumina NextSeq 500 high-output run using paired-end chemistry with 75 bp read length.
The sequencing data was demultiplexed using Illumina bc12fastq2-v2.17. The quality of the reads was assessed thanks to FastQC (https://www.bioinformatics.babraham.ac.uk/projects/fastqc/). The reads were then processed and mapped to the human genome hg38 using the Bcbio-nextgen framework version 1.0.3 (https://github.com/chapmanb/bcbio-nextgen). The aligner used was HISAT2 2.0.5. For sample quality assessment, raw counts were normalised with DESeq2 regularized logarithm function. A principal component analysis (PCA) was performed using R v 3.3.1(Team, 2015) and led to the detection of a batch effect among samples which was corrected using the removeBatchEffect function from Limma v3.30.13. The identification of the differentially expressed genes between treated and non-treated samples was performed using DESeq2 v1.14.1 (Love et al., 2014) in R v 3.3.1 (Team, 2015) using the design ˜Batch+Compound to account for the batch effect directly. A FDR of 0.1 was defined to call for differentially expressed genes. The mechanistic networks in were generated using IPA upstream analysis (QIAGEN Inc., https://www.qiagenbioinformatics.com/products/ingenuity-pathway-analysis). Gene Ontology (GO) annotations enrichment analyses were performed with GOSeq v1.28.0 (Young et al., 2010), were generated in R using ggplot2 (http://ggplot2.tidyverse.org/index.html) and package GOSemSim v2.2.0 (Yu et al., 2010) for term similarities.
In order to determine the biological processes driving the pro-proliferative effects of our hit compounds, we performed RNA-sequencing (RNA-seq) and single organoid quantitative proteomics (FIG. 4A). These analyses were performed on hCOs treated with compounds 3, 63 and 65 at concentrations of 3 μM, 0.3 μM and 1 μM, respectively. RNA-seq for hCO treated with compounds 3 and 65 clustered distinctly in principal component analysis (FIG. 4B) and regulated a total of 239 and 207 genes (FIG. 9A), respectively.

[3] = target: kinases (Homo sapiens, UniProt O00311); assay type: biochemical; conditions: CDC7/DBF4 FRET-Lantha SP; Test Conc(μM) 1
kinases (Homo sapiens, UniProt O00311), sequence (O00311 whole entry): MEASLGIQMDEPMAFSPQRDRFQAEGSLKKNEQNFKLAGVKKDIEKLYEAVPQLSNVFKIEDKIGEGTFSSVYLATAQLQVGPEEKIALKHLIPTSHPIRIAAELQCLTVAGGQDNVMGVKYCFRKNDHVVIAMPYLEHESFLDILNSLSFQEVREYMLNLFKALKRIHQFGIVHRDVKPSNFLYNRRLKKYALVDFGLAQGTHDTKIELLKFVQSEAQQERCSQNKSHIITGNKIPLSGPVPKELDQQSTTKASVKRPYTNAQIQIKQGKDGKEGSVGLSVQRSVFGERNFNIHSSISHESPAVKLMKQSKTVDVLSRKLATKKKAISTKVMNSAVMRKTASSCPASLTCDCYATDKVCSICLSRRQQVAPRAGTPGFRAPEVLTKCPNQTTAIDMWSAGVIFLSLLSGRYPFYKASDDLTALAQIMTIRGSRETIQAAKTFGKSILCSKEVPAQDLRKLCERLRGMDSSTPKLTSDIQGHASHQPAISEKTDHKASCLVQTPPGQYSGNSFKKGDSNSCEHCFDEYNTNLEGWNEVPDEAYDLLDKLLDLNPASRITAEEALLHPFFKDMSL

[4] = target: kinases (Homo sapiens, UniProt O95835); assay type: biochemical; conditions: LATS1 FRET-Lantha SP; Test Conc(μM) 1
kinases (Homo sapiens, UniProt O95835), sequence (O95835 whole entry): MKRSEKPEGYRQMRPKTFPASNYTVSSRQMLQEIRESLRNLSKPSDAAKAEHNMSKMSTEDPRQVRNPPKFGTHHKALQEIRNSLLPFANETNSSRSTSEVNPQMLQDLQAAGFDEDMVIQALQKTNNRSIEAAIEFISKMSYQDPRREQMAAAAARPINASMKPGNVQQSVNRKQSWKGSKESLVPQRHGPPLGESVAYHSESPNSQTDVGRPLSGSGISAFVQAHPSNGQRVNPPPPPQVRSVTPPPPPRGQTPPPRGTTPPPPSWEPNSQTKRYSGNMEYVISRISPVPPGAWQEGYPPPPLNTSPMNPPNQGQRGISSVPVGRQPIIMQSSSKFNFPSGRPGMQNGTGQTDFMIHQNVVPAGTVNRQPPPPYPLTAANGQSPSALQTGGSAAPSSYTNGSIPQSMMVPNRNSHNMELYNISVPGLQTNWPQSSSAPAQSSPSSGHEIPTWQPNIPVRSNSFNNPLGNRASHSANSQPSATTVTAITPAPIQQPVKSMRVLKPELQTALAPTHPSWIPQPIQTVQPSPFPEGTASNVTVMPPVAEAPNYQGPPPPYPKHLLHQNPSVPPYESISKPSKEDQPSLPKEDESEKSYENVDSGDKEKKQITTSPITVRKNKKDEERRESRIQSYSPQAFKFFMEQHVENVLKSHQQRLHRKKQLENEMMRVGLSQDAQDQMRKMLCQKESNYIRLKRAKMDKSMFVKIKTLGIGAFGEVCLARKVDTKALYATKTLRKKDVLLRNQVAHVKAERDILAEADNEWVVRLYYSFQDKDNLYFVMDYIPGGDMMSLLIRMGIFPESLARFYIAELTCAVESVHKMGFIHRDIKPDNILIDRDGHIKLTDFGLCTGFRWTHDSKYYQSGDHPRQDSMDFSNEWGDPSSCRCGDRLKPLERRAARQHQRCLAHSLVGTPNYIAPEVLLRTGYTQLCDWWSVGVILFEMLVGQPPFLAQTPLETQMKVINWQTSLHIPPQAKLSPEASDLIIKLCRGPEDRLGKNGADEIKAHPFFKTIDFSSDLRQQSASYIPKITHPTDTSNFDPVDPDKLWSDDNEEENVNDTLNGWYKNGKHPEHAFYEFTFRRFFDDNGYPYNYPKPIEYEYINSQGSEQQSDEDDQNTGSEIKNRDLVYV

[5] = target: kinases (Homo sapiens, UniProt P51957); assay type: biochemical; conditions: NEK4 FRET-Z-Lyte SP; Test Conc(μM):ATP Conc(μM) 1:50
kinases (Homo sapiens, UniProt P51957), sequence (P51957 whole entry): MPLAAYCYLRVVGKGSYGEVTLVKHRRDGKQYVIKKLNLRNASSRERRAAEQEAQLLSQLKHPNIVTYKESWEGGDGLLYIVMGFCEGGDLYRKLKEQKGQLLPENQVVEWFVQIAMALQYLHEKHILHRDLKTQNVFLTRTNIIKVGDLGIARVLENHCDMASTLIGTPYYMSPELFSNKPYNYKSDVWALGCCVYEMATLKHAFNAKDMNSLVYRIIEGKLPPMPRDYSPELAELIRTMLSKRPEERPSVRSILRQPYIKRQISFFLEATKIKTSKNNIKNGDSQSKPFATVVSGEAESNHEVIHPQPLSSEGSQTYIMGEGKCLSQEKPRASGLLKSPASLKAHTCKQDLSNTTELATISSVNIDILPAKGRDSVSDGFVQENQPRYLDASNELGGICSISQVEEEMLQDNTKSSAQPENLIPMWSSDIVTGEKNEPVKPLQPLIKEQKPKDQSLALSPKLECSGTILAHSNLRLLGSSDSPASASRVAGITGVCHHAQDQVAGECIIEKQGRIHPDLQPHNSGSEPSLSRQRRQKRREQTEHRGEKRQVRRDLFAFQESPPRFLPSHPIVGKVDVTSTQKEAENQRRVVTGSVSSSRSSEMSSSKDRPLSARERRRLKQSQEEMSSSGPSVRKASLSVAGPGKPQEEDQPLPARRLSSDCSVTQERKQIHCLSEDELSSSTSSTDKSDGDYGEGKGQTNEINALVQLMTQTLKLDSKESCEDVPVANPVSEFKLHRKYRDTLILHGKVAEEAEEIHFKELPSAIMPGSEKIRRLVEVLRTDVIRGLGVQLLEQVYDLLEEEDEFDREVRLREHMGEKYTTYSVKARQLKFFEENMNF

[6] = target: kinases (Homo sapiens, UniProt Q9HCP0); assay type: biochemical; conditions: CSNK1G1 (CK1gamma1) Z-Lyte SP; Test Conc(μM):ATP Conc(μM) 1:5
kinases (Homo sapiens, UniProt Q9HCP0), sequence (Q9HCP0 whole entry): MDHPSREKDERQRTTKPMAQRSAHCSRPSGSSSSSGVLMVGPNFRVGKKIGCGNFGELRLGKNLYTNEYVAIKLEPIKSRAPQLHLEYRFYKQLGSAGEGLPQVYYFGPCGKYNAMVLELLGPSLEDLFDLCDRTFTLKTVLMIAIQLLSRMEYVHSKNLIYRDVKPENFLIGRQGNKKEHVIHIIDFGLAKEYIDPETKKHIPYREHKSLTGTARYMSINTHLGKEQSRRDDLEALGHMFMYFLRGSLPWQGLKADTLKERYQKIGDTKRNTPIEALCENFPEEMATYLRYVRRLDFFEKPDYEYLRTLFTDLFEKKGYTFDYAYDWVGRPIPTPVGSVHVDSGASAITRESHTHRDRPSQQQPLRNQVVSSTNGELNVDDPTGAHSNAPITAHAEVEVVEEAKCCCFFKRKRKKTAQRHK

Cc1ccc(NC(=O)c2ccnc(N3CCOCC3)c2)cc1Nc1ccnc(N2CC(C)OC(C)C2)n1 (centres unmarked) [compound 3]
Ki-67+ cardiomyocytes with 10 μM simvastatin ([1]; 3 μM compound 3): abolished
Ki-67+ cardiomyocytes [1]: increased
proliferative response (Ki-67 intensity) with 10 μM simvastatin [1]: abolished
proliferation above the optimal concentrations [1]: no further increase
network significantly regulated (network analysis of RNA-seq) [2]: MAPK14 (p38α) network
transcription of cell cycle controllers PLK1, CCNB2, CCND1, CCNA2 and FOXM1 ([2]; 3 μM): upregulated
genes regulated (RNA-seq) [2]: 239 genes
Mean Inhib (%) [3]: 4.9%
Mean Inhib (%) [4]: 19.8%
Mean Inhib (%) [5]: 14.2%
Mean Inhib (%) [6]: 5.2%

Cc1cc(Oc2ccnc(Nc3ccc(S(N)(=O)=O)cc3)c2)c(-c2ccccn2)nc1C [compound 65]
Ki-67+ cardiomyocytes [1]: increased
proliferative response (Ki-67 intensity) with 10 μM simvastatin [1]: abolished
proliferation above the optimal concentrations [1]: no further increase
network significantly regulated (network analysis of RNA-seq) [2]: TGFβ receptor (TGFβR) and bone morphogenic protein receptor (BMPR) networks
mevalonate pathway enzymes SQLE, HMGCS1 and CYP51A1 ([2]; 1 μM): activated
networks regulated based on RNA-seq data (gene ontologies) ([2]; 1 μM): an extracellular matrix network and a cholesterol biosynthesis network
transcription of CDKN2B (p15) ([2]; 1 μM): inhibited
genes regulated (RNA-seq) [2]: 207 genes
Mean Inhib (%) [3]: 0.9%
Mean Inhib (%) [4]: 17.2%
Mean Inhib (%) [5]: 3.6%
Mean Inhib (%) [6]: −1.9%
